The record followed here is patent US6716883B1, “Composition useful to treat periodontal disease” (priority 1998, dated 2004).

What all share (assay type): cell-based
Assay [1] deals with rat bone marrow cells (RBMC). The assay is described as follows: APA in primary rat bone marrow cell (RBMC) bone formation system. An excerpt:
Rat bone marrow cells were derived from femoral bones removed from adult male Wistar rats as described previously (Maniatopoulos et al., Cell Tissue Res, 1988, 254(2):317-330). These cells, grown in the presence of dexamethasone, vitamin C and b-glycerophosphate, differentiated into osteoblasts as shown by increases in APA and the production of mineralized bone nodules within 12-14 days. For the purposes of this investigation, we analyzed 10-16 day cultures for APA, as this was a reliable marker for osteoblastic differentiation in this system.

Assay [2] relates to rat SBMC (stromal bone marrow cell) line. The assay is described as follows: AP activity in rat stromal bone marrow cell (SBMC) line. On the procedure:
(§1) Cells for the rat SBMC model were obtained from Dr. Sandu Pitaru (Tel Aviv University, Israel) and maintained in T25 tissue culture flasks (Sarstedt, Newton, N.C., USA) in a medium composed of αMEM+RNA+DNA+antibiotic supplemented with 10% fetal calf serum, 10 mM β-glycerophosphate, 10^−8M dexamethasone, 50 μg/ml vitamin C and 3 ng/ml fibroblast growth factor. The media were changed every 48 hours and the cells subcultured when almost confluent (approximately every 72 hrs). Cells were grown for a period of 1-2 weeks to allow for formation of mineralized bone nodules.
(§2) SBMC cultures were assayed for AP activity using paranitrophenol-phosphate (pN-p) as the substrate as described above for CPO cultures. In some cases, AP activity was also measured using direct staining of SBMC cultures in 96 well plates as described previously (Tenenbaum et al., Anat Rec. 1995. 242(2):200-10). Mineralization in the SBMC cultures was determined using Alizarin Red staining in situ that was assessed with the Titertek spectrophotometer set at 525 nm.

The subject of assay [3] is chick periosteal osteogenesis (CPO) cultures. The assay is described as follows: RT-PCR mRNA levels of bone proteins (AP, BSP, collagen type I, OPN) in CPO cultures. On the procedure:
For the purposes of this investigation, the effects of a potent aryl hydrocarbon, TCDD (2,3,7,8-tetrachlorodibenzo-p-dioxin or dioxin) on the early events occurring during osteogenesis were determined. The CPO model traverses a number of phases of osteogenesis. Therefore, it was possible to design temporal or “window” experiments in order to determine the phases of osteogenesis that were sensitive to TCDD and/or resveratrol. […] All cultures were maintained for the entire 6-day period. The compounds were administered over four different temporal phases, as outlined below in the time-line diagram: a) days 0-6; b) days 0-2; c) days 2-4 or d) days 4-6 (Note: all cultures were stopped at 6 days). Results were compared to e) vehicle alone over days 0-6. [drawing 1]
The isolation of total RNA from periosteal cultures to determine affect of TCDD on message levels of bone proteins was accomplished using the QIAGEN Rneasy® kit and QIAShredder® (Hilden, Germany) according to the manufacturer's instructions. Total RNA (2 μg) was reverse transcribed using SuperScript II™ RNase H^− Reverse Transcriptase (Gibco BRL, City Country). PCR reactions were performed in […] reactions at a cycle number ensuring a linear amplification profile (BSP, 5 min at 94° C., 30 cycles [of 20 sec at 94° C., 20 sec at 55° C., 20 sec at 72° C.]; Collagen 5 min at 94° C., 30 cycles [of 20 sec 94° C. 20 sec 58° C., 20 sec 72° C.]; AP 5 min at 94° C., 30 cycles [of 20 sec 94° C., 20 sec 59° C., 20 sec 72° C.]; OPN 5 min at 85° C., 5 min at 94° C., 25 cycles [20 sec at 94° C., 20 sec at 60° C., 20 sec at 72° C.] 7 min at 72° C.). The oligonucleotides for BSP (sense: 5′-[…]-3′; antisense: 5′-[…]-3′) AP (sense: 5′-[…]-3′; antisense: 5′-[…]-3′), Collagen (sense: 5′-[…]-3′; antisense: 5′-[…]-3′); OPN (sense 5′-[…]-3′; antisense 5′-[…]-3′) were synthesized by Life Technologies (Gibco BRL, Rockville, Md.). PCR products were electrophoresed on 1.5 (wt/vol) % agarose gels with 0.1 μg/ml ethidium bromide. The gels were visualized on an UV transilluminator and photographed using 667 Polaroid film. The inverse images of the photographs were analyzed by densitometry. All values were normalized for the internal control, β-actin.

The test system of assay [4] is rat SBMC (stromal bone marrow cell) line. The assay is described as follows: Mineralization (Alizarin Red staining) in rat SBMC line. On the procedure:
as §1, §2

The subject of assay [5] is chick periosteal osteogenesis (CPO) cultures. The assay is described as follows: Histological evaluation of bone formation in chick periosteal osteogenesis (CPO) cultures. On the procedure:
In this experiment, the chick periosteal osteogenesis (CPO) model was used to determine if bone loss is induced by dioxin. The CPO model has been described in detail previously (Nijweide, Proc. Kon. Ned. Akad. Wet. 1975. C78:410-417) and was prepared for the purposes of this experiment as set out below.
Following sacrifice, two triangular calvarial explants were removed by cutting along the central suture, transversely along the posterior suture and laterally above the eye in 17-day-old embryonic chicks. The ectocranial periosteum (outer curved surface) was peeled off using forceps under microscopic magnification and folded so that the surface originally facing bone was in apposition to itself as described previously (Tenenbaum et al., Calcif Tissue Int. 34:76-79). The folded explant was then placed on a Millipore filter (HA 0.45 μm), which was transferred onto a stainless steel grid resting in the center well of an organ culture dish (Falcon Plastics, Lincoln Park, N.J., USA) that was filled with culture media to a level such that the culture was supported at the gas-liquid interface (˜1.5 ml of media). Three cultures were placed in each dish which was then covered and incubated at 37° C. in a humidified atmosphere containing 5% CO2 in air. Media changes occurred on days 2 and 4, and the medium was comprised of BGJb medium (Fitton-Jackson Modification) with L-glutamine (Gibco, Grand Island, N.Y., USA) and supplemented with 2% antibiotic (10,000 units/ml Penicillin G sodium, 10,000 μg/ml Streptomycin sulfate in 0.85% saline) (Gibco), 10% fetal calf serum (Gibco), 10^−7M dexamethasone (Sigma, St. Louis, Mo., USA), 10 mM β-glycerophosphate, and 300 μg/ml L-ascorbate (Gibco).
For the purposes of this investigation, the effects of a potent aryl hydrocarbon, TCDD (2,3,7,8-tetrachlorodibenzo-p-dioxin or dioxin) on the early events occurring during osteogenesis were determined. The CPO model traverses a number of phases of osteogenesis. […]

The test system of assay [6] is rat bone marrow cell line (RBMCL). The assay is described as follows: APA in rat bone marrow cell line (RBMCL).
Setting [7] is: resveratrol 4×10^−8M to 3×10^−5M with TCDD.

Regarding `Clc1cc2c(cc1Cl)Oc1cc(Cl)c(Cl)cc1O2` [TCDD, 2,3,7,8-tetrachlorodibenzo-p-dioxin], the inhibition at 0.001 µM in assay [1] (Rattus norvegicus, Bone marrow cell, read-out: inhibition of osteodifferentiation as measured by APA, compared to alcohol-treated control) was about 50%. For the same compound, the “reduction in AP activity” value in assay [2] (TCDD 1.1×10^−9M) is reported as 33%. The “reduction in AP activity versus control” value in assay [2] (TCDD 3.3×10^−9M and higher) was 33%. Further, the “dose dependence of reduction in AP activity” value in assay [2] (TCDD 3.3×10^−9M to 4.12×10^−11M) was “dose dependant”. The AP activity entry in assay [2] (TCDD 4.12×10^−11M) is “not affected”. Besides, in assay [3] (TCDD, p<0.05), the “reduction in mRNA for BSP” value is about 4 fold, the “reduction of mRNA levels for OPN” value was “about 40%”, the “reduction of mRNA levels for type I collagen in comparison to control” value is given as 50% and the “reduction of message levels for AP in comparison to control” value is given as “about 50%”. In assay [4] (TCDD 4.12×10^−11M to 1.52×10^−12M), the “reduction in mineralization (Alizarin Red Staining), dose dependence” value is “dose dependant reduction in mineralization”. Moreover, the decrease in mineralization result in assay [4] (in the presence of TCDD) is listed as “approximately 75%”. Also, in assay [5] (TCDD-treated CPO cultures, FIG. 1B), the “bone formation (histology)” value is listed as “obvious changes in bone formation”. The “inhibition of osteogenic differentiation (APA)” value in assay [6] (TCDD, 6 day cultures, in comparison to CPO and RBMC) was “lower dose of TCDD was able to inhibit osteogenic differentiation”.
For `Oc1ccc(C=Cc2cc(O)cc(O)c2)cc1` [resveratrol, 3,5,4′-trihydroxystilbene], the “abrogation of TCDD effects on APA” value in assay [1] (resveratrol 10^−6 molar in alcohol, added together or singly between days 4-10, FIG. 9) is recorded as “completely abrogated the effects of TCDD”. Besides, the “effect on APA” value in assay [1] (resveratrol alone) is recorded as “no significant effects”. For the same compound, the “effect on AP activity” value in assay [2] (increasing concentration of resveratrol, TCDD 4.12×10^−11M) is “had no effect”. Moreover, the “abrogation of TCDD effect on AP activity” value in assay [2] (resveratrol 4×10^−8M to 1×10^−5M, TCDD 1.1×10^−9M) is on record as “abrogated the effects of TCDD”. In addition, in assay [2] (resveratrol at various concentrations, TCDD 3.3×10^−9M and higher), the “reversal of TCDD reduction in AP activity” value was “not reversed”. Further, the “reversal of TCDD inhibition of BSP mRNA” value in assay [3] (TCDD with resveratrol) is recorded as “reversed completely”. For the same compound, in assay [3] (both TCDD and resveratrol), the “mRNA levels for OPN” value is reported as “restored”. In assay [3] (both TCDD and resveratrol, versus control), the “mRNA levels for Type I collagen” value is reported as “identical levels”. Further, in assay [3] (resveratrol alone), the “message for BSP” value is reported as “partially down-regulate” and the message for collagen entry was “partially down-regulate”. The “effect on TCDD-induced decrease in mineralization” value in assay [4] (resveratrol with TCDD) was “attenuated”. Further, the “reversal of TCDD effect on bone formation (histology)” value in assay [5] (cultures treated with both TCDD and resveratrol, FIG. 1D) is “complete reversal of the TCDD effect”. In assay [5] (resveratrol alone, FIG. 1C), the “bone formation (histology)” value is on record as “large deposits of bone similar to the control cultures”. Besides, in assay [6] (setting [7]), the “APA in comparison to control” value was “appeared to stimulate APA” and the “inhibition of TCDD-mediated inhibition of osteoblastic differentiation (APA)” value is “able to inhibit TCDD-mediated inhibition of osteoblastic differentiation”.

As usually defined, the inhibition is the share of the control response that was lost under treatment.
